Data from patent US20100292217A1, “RANOLAZINE FOR THE TREATMENT OF CNS DISORDERS” (Gilead Palo Alto, Inc., priority 2009, published 2010).
Like-named read-outs stand apart in the source and are kept apart here.

Tests used:
[1] = usual clinical dosages; minority with mild dizziness, nausea, headache, constipation; cited from earlier work
WT-Nav1.1 = molecular target: T1, WT-Nav1.1 (Homo sapiens, UniProt P35498); experiment: Whole-cell voltage-clamp of WT-Nav1.1 expressed heterologously in tsA201 cells; format: cell-based
T1 construct: expressed in transfected cells; host or cells: tsA201 cells, transient transfection

Nav1.4 = details: inverse sodium gradient, Wang et al. 2008; cited from earlier work
WT-Nav1.2 = molecular target: T2, WT-Nav1.2 (Homo sapiens, UniProt Q99250); experiment: Whole-cell voltage-clamp of WT-Nav1.2 stably transfected in CHO cells; format: cell-based; details: Example 2; methods in present tense, no data given
T2 construct: expressed in transfected cells

[2] = Brain penetration in rats after continuous intravenous infusion (LC-MS/MS); format: in vivo, Sprague Dawley rats; details: for concentration at 1 h / concentration at 2.5 h / concentration at 5 h: 85.5 μg/kg/min
Procedure: Jugular vein cannulated male Sprague Dawley rats (250-350 g, Charles River Laboratories, Hollister, Calif.) were used to study brain penetration of ranolazine in vivo. Animal use was approved by the Institutional Animal Care and Use Committee, Gilead Sciences. Three rats per group were infused intravenously with ranolazine in saline at 85.5 μg/kg/min. After 1, 2.5 or 5 h animals were sacrificed for plasma and brain collection, and ranolazine concentrations were measured by liquid chromatography coupled with tandem mass spectrometry (LC-MS/MS). Brain tissue was homogenated in 1% 2N HCl acidified 5% sodium fluoride (final homogenate was diluted 3-fold). Plasma and brain homogenate samples (50 μl) were precipitated along with deuterated D3-ranolazine as an internal standard, vortexed and centrifuged. The supernatant (50 μL) was transferred and diluted with water (450 μl) prior to injection (10 μl). High performance liquid chromatography was performed using a Shimadzu LC-10AD liquid chromatograph and a Luna C18(2), 3 μm, 20×2.0 mm column with a mobile phase consisting of water containing 0.1% formic acid (solution A) and acetonitrile (solution B) carried out under isocratic conditions (75% solution A, 25% solution B; flow rate 0.300 ml/min). Mass spectrometric analyses were performed using an API3000 mass spectrometer (Applied Biosystems, Foster City, Calif.) operating in positive ion mode with MRM transition 428.1>98. Brain-to-plasma ranolazine ratios were calculated for each sample as ng ranolazine/g brain divided by ng ranolazine/ml plasma.

Nav1.1 R1648H = molecular target: T3, Nav1.1 R1648H (Homo sapiens, UniProt P35498, R1648H); experiment: Whole-cell voltage-clamp of mutant Nav1.1 R1648H (GEFS+); format: cell-based
T3 construct: expressed in transfected cells; host or cells: tsA201 cells (named for WT; same transient transfection method for mutants)

[3] = molecular target: cardiac voltage-gated potassium channel HERG (Homo sapiens, UniProt Q12809); details: accounts for mild QT interval prolongation in some subjects; cited from earlier work
[4] = Sicouri 2008; Chaitman 2006; cited from earlier work
[5] = system: Nav1.1 mutant channels (R1648H, T875M, R1648C, F1661S, L263V, Q1489K); experiment: Whole-cell voltage-clamp of panel of Nav1.1 mutant channels (GEFS+, SMEI, FHM3); format: cell-based, Human
[6] = 3 μM ranolazine, pulse trains 10-135 Hz
[7] = pulse 300 of 10 Hz train, read-out: Use-Dependent Block of Peak Current IC50
[8] = read-out: Tonic Block of Peak Current IC50
[9] = read-out: Tonic Block of Persistent Current IC50
[10] = summary statement, persistent current evoked by SCN1A mutations, channel not specified

T2 sequence (Q99250 whole entry): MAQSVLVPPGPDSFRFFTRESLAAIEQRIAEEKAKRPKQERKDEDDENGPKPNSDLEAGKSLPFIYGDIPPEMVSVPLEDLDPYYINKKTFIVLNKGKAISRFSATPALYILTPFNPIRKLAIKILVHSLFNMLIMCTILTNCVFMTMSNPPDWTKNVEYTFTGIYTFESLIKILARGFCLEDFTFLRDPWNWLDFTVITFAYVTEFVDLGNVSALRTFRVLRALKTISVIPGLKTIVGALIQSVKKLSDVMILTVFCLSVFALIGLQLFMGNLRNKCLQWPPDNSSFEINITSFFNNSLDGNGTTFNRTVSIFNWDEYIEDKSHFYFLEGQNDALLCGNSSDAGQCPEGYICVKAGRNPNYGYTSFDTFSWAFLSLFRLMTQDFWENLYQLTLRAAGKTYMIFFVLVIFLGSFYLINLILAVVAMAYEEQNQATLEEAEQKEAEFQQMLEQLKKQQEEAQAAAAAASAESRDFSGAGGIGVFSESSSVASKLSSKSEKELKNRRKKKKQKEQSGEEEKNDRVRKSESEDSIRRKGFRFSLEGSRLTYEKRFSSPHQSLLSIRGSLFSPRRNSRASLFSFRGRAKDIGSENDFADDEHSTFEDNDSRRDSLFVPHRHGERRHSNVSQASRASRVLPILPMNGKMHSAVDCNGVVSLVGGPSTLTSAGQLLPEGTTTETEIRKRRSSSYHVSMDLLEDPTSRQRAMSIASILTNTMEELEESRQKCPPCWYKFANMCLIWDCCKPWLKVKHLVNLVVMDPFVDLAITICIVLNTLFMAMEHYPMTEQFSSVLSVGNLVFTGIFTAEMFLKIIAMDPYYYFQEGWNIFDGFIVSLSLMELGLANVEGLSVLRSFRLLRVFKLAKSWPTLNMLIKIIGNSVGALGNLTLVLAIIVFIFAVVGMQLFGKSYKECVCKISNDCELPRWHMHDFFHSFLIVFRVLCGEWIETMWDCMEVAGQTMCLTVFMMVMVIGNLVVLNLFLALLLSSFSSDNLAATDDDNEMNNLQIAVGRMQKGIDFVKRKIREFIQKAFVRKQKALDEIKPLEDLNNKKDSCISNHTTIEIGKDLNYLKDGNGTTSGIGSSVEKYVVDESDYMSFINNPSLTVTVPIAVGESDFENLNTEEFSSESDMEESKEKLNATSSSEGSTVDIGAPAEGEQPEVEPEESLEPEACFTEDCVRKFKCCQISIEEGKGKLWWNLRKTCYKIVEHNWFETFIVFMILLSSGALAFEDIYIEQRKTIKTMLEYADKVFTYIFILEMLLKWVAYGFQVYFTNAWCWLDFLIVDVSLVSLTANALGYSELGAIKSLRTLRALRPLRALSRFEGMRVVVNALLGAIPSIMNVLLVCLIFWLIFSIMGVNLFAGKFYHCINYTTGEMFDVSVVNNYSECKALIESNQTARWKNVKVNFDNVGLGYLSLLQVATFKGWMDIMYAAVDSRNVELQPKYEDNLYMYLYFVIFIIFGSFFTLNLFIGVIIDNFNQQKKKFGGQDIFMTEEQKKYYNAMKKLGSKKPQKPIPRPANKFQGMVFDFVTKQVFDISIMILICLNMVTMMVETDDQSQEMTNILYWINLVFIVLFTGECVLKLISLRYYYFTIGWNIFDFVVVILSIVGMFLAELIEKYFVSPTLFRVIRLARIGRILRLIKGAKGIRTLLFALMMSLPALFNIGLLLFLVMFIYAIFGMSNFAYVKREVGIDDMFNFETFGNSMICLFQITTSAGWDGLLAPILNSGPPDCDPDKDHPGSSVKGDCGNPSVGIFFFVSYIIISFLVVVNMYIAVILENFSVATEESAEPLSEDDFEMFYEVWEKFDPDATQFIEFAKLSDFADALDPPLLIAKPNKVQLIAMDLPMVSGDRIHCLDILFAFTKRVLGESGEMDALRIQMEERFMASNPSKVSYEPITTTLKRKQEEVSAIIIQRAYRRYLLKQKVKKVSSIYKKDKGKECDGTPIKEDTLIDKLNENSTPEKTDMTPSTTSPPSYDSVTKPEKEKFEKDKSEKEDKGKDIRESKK
Sequence of cardiac voltage-gated potassium channel HERG (Q12809 whole entry): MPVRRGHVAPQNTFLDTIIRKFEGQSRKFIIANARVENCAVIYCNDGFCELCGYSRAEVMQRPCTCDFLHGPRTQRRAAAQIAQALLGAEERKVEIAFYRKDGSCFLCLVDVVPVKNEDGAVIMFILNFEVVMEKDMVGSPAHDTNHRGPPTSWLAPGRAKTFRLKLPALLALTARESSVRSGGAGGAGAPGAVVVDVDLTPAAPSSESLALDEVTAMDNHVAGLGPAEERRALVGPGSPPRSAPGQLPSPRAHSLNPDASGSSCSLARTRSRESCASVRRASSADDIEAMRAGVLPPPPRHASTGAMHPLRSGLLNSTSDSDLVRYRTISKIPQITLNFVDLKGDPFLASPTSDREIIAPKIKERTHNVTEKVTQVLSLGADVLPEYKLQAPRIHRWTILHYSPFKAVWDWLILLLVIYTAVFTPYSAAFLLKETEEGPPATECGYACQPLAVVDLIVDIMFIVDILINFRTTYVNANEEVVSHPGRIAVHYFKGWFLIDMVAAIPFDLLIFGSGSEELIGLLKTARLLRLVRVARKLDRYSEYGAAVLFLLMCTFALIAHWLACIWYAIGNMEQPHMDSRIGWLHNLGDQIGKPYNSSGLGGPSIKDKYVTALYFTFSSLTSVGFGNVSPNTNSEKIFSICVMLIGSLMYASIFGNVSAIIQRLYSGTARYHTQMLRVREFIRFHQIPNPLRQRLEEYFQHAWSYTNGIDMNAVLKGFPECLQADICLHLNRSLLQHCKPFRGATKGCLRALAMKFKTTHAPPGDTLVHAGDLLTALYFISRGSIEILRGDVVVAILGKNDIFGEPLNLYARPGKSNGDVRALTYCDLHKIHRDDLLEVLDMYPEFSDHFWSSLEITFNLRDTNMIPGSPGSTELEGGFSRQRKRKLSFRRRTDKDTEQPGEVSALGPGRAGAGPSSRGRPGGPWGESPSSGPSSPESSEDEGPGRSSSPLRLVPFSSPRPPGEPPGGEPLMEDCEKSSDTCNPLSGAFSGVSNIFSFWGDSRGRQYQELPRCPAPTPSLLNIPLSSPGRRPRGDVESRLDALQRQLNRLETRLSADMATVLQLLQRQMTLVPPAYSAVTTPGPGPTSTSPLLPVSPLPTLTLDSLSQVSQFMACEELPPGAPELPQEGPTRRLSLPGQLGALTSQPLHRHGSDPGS

COc1ccccc1OCC(O)CN1CCN(CC(=O)Nc2c(C)cccc2C)CC1 (racemic) [Ranolazine, (±)-N-(2,6-dimethylphenyl)-4-[2-hydroxy-3-(2-methoxyphenoxy)-propyl]-1-piperazineacetamide]
Tolerability [1]: well tolerated
Potency at inhibiting persistent current compared to use-dependent block of peak current (WT-Nav1.1): 3.6 fold
Selectivity for tonic block of persistent current over peak current (WT-Nav1.1): approximately 16 fold
Tonic Block of Peak Current k (Hill slope) (WT-Nav1.1): −0.84 ± 0.15
Tonic Block of Persistent Current k (Hill slope) (WT-Nav1.1): −0.83 ± 0.06
Use-dependent block: loss of channel availability (WT-Nav1.1; [6]): exaggerated loss of availability at all frequencies greater than 22 Hz
Effect on peak current density (WT-Nav1.1; 30 μM ranolazine): no significant effect
Shift of voltage-dependence of activation or inactivation (WT-Nav1.1; 30 μM ranolazine): did not significantly shift
Tonic block of peak current (WT-Nav1.1; 30 μM ranolazine): minimal
Use-dependent block: peak current during repetitive pulsing (WT-Nav1.1; 30 μM ranolazine, 5 ms, −10 mV, 300 pulses, 10 Hz): caused a reduction in peak current during repetitive pulsing
Inactivation k (slope factor) (WT-Nav1.1; 30 μM ranolazine, fast inactivation): −8.0 ± 0.5 mV
Inactivation V1/2 (WT-Nav1.1; 30 μM ranolazine, fast inactivation, 100 ms prepulses): −64.2 ± 0.8 mV
Activation V1/2 (WT-Nav1.1; 30 μM ranolazine, n=10): −21.6 ± 0.8 mV
Activation k (slope factor) (WT-Nav1.1; 30 μM ranolazine, n=10): 8.0 ± 0.2 mV
Use-Dependent Block of Peak Current k (Hill slope) (WT-Nav1.1; 10 Hz train): −0.84 ± 0.05
IC50 (WT-Nav1.1; [7]): 195 µM
IC50 (WT-Nav1.1; [8]): 871 µM
IC50 (WT-Nav1.1; [9]): 53.7 µM
Association rate kon (Nav1.4): 8.2 µM⁻¹ s⁻¹
Inhibition of WT-Nav1.2 (WT-Nav1.2): has the ability to inhibit WT-Nav1.2
Feasible brain concentration ([2]; extrapolated from therapeutic plasma concentration 2-10 μM): up to 3.3 μM
Kp at 1 h ([2]; male, Sprague Dawley, brain, iv, rat, i.v. infusion 85.5 μg/kg/min, 1 h, read-out: Brain/Plasma): 0.38
Kp at 2.5 h ([2]; male, Sprague Dawley, brain, iv, rat, i.v. infusion 85.5 μg/kg/min, 2.5 h, read-out: Brain/Plasma): 0.38
Kp at 5 h ([2]; male, Sprague Dawley, brain, iv, rat, i.v. infusion 85.5 μg/kg/min, 5 h, read-out: Brain/Plasma): 0.3
concentration at 1 h ([2]; male, Sprague Dawley, rat, brain, iv, Brain (molar), rat, i.v. infusion 85.5 μg/kg/min, 1 h, heading: Brain): 700 nM
concentration at 2.5 h ([2]; male, Sprague Dawley, rat, brain, iv, Brain (molar), rat, i.v. infusion 85.5 μg/kg/min, 2.5 h, heading: Brain): 1040 nM
concentration at 1 h ([2]; male, Sprague Dawley, rat, brain, iv, rat, i.v. infusion 85.5 μg/kg/min, 1 h, read-out: Brain): 298 ± 88.6 ng/g
concentration at 2.5 h ([2]; male, Sprague Dawley, rat, brain, iv, rat, i.v. infusion 85.5 μg/kg/min, 2.5 h, read-out: Brain): 446 ± 302 ng/g
concentration at 5 h ([2]; male, Sprague Dawley, rat, brain, iv, rat, i.v. infusion 85.5 μg/kg/min, 5 h, read-out: Brain): 470 ± 300 ng/g
concentration at 1 h ([2]; male, Sprague Dawley, rat, plasma, iv, rat, i.v. infusion 85.5 μg/kg/min, 1 h, read-out: Plasma): 777 ± 255 ng/mL
concentration at 2.5 h ([2]; male, Sprague Dawley, rat, plasma, iv, rat, i.v. infusion 85.5 μg/kg/min, 2.5 h, read-out: Plasma): 1180 ± 456 ng/mL
concentration at 5 h ([2]; male, Sprague Dawley, rat, plasma, iv, rat, i.v. infusion 85.5 μg/kg/min, 5 h, heading: Plasma, read-out: Plasma): 3.72 µM
concentration at 5 h ([2]; male, Sprague Dawley, rat, plasma, iv, rat, i.v. infusion 85.5 μg/kg/min, 5 h, read-out: Plasma): 1590 ± 488 ng/mL
Brain penetration ([2]; rat, all time points (1, 2.5, 5 h)): significant brain penetration
Brain ([2]; rat, i.v. infusion 85.5 μg/kg/min, 5 h): 470 ng/g
Mean brain levels as fraction of corresponding plasma levels ([2]; rat, throughout the time course 1-5 h): approximately one third
Potency at inhibiting persistent current compared to use-dependent block of peak current (Nav1.1 R1648H): 4.6 fold
Selectivity for tonic block of persistent current over peak current (Nav1.1 R1648H): approximately 16 fold
Tonic Block of Peak Current k (Hill slope) (Nav1.1 R1648H): −1.00 ± 0.19
Tonic Block of Persistent Current k (Hill slope) (Nav1.1 R1648H): −1.00 ± 0.09
Charge conducted during slow depolarizing voltage ramp (−40 to 0 mV, normalized to peak current) (Nav1.1 R1648H; 3 μM ranolazine, 20 mV/s ramp): reduced the charge conducted by R1648H to the level observed in cells expressing WT channels recorded in the absence of drug
Use-dependent block: loss of channel availability (Nav1.1 R1648H; [6]): exaggerated loss of availability at all frequencies greater than 22 Hz
Effect on persistent current (Nav1.1 R1648H; 30 μM ranolazine): substantially reduced
Tonic block of peak current (Nav1.1 R1648H; 30 μM ranolazine): minimal tonic block
Use-Dependent Block of Peak Current k (Hill slope) (Nav1.1 R1648H; 10 Hz train): −0.88 ± 0.03
IC50 (Nav1.1 R1648H; [7]): 138 µM
IC50 (Nav1.1 R1648H; [8]): 490 µM
IC50 (Nav1.1 R1648H; [9]): 30.2 µM
Block of HERG [3]: blocks
Usual therapeutic plasma concentration [4]: 2 to 10 µM
Use-dependent block: channel availability by the 300th pulse ([5]; 30 μM ranolazine, WT-Nav1.1 and mutant channels, 10 Hz): significant loss of channel availability
Block of persistent current compared to peak current ([5]; 30 μM ranolazine, all mutants, tonic block): much greater degree of ranolazine block of persistent current as compared to peak current
Use-dependent reduction in channel availability compared to WT-Nav1.1 ([5]; 30 μM ranolazine, mutants R1648H, T875M and R1648C): significantly greater reduction in channel availability
Level of persistent current in presence of ranolazine versus WT-Nav1.1 without drug ([5]; 30 μM ranolazine, mutants R1648H, T875M, L263V): not significantly different from WT-Nav1.1 channels in the absence of drug
Greater inhibition of persistent current compared to tonic block of peak current [5, 10]: 16 fold
Greater inhibition of persistent current compared to use-dependent block of peak current [5, 10]: 5 fold
